ChEMBL document CHEMBL4699547, “Design, synthesis, and multitargeted profiling of N-benzylpyrrolidine derivatives for the treatment of Alzheimer's disease” (Bioorg Med Chem, 2020)
pIC50, pKi: −log10 of the molar value. Active and inactive are the calls of the source. The calls are words filed in the database; no cut-off is given here.

Experiments:
Cholinesterase [1] = target: T1, Cholinesterase (Homo sapiens, UniProt P06276); assay: Inhibition of human BChE by Ellman's method
Acetylcholinesterase [2] = target: T2, Acetylcholinesterase (Homo sapiens, UniProt P22303); assay: Inhibition of human AChE by Ellman's method
Beta-secretase 1 = Beta-secretase 1 (Homo sapiens, UniProt P56817); assay: Inhibition of human BACE-1 by FRET assay
[3] = Permeability of the compound at 25 ug/ml after 18 hrs by PAMPA-BBB assay
Rattus norvegicus [4] = assay: Antioxidant activity in scopolamine-induced Wistar rat model of amnesia assessed as increase in SOD level at 2.5 to 10 mg/kg, po pretreated for 7 days followed by scopolamine challenge […]; type: functional, organism-based; conditions: dose mg/kg 2.5-10, time 7.0 day
[5] = Acute toxicity in Wistar rat assessed as abnormal signs at 175 to 1750 mg/kg, po measured up to 14 days by OCED guideline method; type: organism-based; conditions: in vivo, 336 h, dose 175-1750 mg/kg, time <=14 day
SH-SY5Y = assay: Neuroprotective activity against amyloid beta (1 to 42)-induced oxidative stress in human SH-SY5Y cells assessed as effect on cell viability at 10 to 80 uM measured after 24 hrs by MTT assay (reference value: 62.1 %); type: functional; conditions: dose microM 10-80
Rattus norvegicus [6] = assay: (§1) Improvement in learning and spatial memory in icv infused amyloid beta (1 to 42)-induced rat model of Alzheimer's disease assessed as reduction in escape latency at 10 mg/kg, po administered for 9 consecutive days starting from 7 days post surgery and measured daily for 5 days by Morris water maze test; type: functional, organism-based; conditions: time 9.0 day
Acetylcholinesterase [7] = target: T2, Acetylcholinesterase; assay: Mixed type inhibition of human AChE assessed as increase in Km using varying level acetylthiocholine iodide as substrate by Lineweaver-Burk plot analysis
Rattus norvegicus [8] = assay: Cognitive enhancing effect in scopolamine-induced Wistar rat model of amnesia assessed as increase in spontaneous alteration at 10 mg/kg, po pretreated for 7 days followed by scopolamine challenge by Y-maze test; type: functional, organism-based; conditions: time 7.0 day
Acetylcholinesterase [9] = target: T2, Acetylcholinesterase; assay: Mixed type inhibition of human AChE assessed as decrease in Vmax using varying level of acetylthiocholine iodide as substrate by Lineweaver-Burk plot analysis
Rattus norvegicus [10] = assay: Cognitive enhancing effect in scopolamine-induced Wistar rat model of amnesia assessed as effect on total arm entries at 10 mg/kg, po pretreated for 7 days followed by scopolamine challenge by Y-maze test; type: functional, organism-based; conditions: time 7.0 day
Acetylcholinesterase [11] = target: T2, Acetylcholinesterase; assay: Mixed type inhibition of human AChE assessed as dissociation constant using varying level acetylthiocholine iodide as substrate by Dixon plot analysis
[12] = Cmax in Wistar rat at 10 mg/kg, po measured up to 48 hrs; type: ADME, organism-based; design: route oral, dose 10 mg/kg, time <=48; conditions: in vivo
Rattus norvegicus [13] = assay: Cognitive enhancing effect in po dosed scopolamine-induced Wistar rat model of amnesia assessed as increase in spontaneous alteration pretreated for 7 days followed by scopolamine challenge by Y-maze test; type: functional, organism-based; conditions: dose mg/kg 5-10, time 7.0 day
Rattus norvegicus [14] = assay: Antioxidant activity in scopolamine-induced Wistar rat model of amnesia assessed as decrease in MDA level at 2.5 to 10 mg/kg, po pretreated for 7 days followed by scopolamine challenge […]; type: functional, organism-based; conditions: dose mg/kg 2.5-10, time 7.0 day
[15] = Tmax in Wistar rat at 10 mg/kg, po measured up to 48 hrs; type: ADME, organism-based; conditions: in vivo
Rattus norvegicus [16] = assay: as §1, with “increase” for “reduction”, “number of platform crossing” for “escape latency”; type: functional, organism-based; conditions: time 9.0 day
Rattus norvegicus [17] = assay: Ex vivo inhibition of AChE in brain of scopolamine-induced Wistar rat model of amnesia at 2.5 to 10 mg/kg, po pretreated for 7 days followed by scopolamine challenge using acetylthiocholine iodide as substrate by Ellman's method; type: functional, organism-based; conditions: dose mg/kg 2.5-10, time 7.0 day
[18] = AUC (0 to 48 hrs) in Wistar rat at 10 mg/kg, po measured up to 48 hrs; type: ADME, organism-based; design: route oral, dose 10 mg/kg, time <=48; conditions: in vivo
[19] = Half life in Wistar rat at 10 mg/kg, po measured up to 48 hrs; type: ADME, organism-based; conditions: in vivo
[20] = MRT in Wistar rat at 10 mg/kg, po measured up to 48 hrs; type: ADME, organism-based; conditions: in vivo
[21] = Acute toxicity in po dosed Wistar rat assessed as maximum tolerated dose by OCED guideline method; type: organism-based; conditions: in vivo
Rattus norvegicus [22] = assay: Cognitive enhancing effect in scopolamine-induced Wistar rat model of amnesia assessed as effect on total arm entries at 2.5 to 10 mg/kg, po pretreated for 7 days followed by scopolamine challenge by Y-maze test; type: functional, organism-based; conditions: dose mg/kg 2.5-10, time 7.0 day
Cholinesterase [23] = target: T1, Cholinesterase; assay: Inhibition of BChE (unknown origin)
Rattus norvegicus [24] = assay: Cognitive enhancing effect in scopolamine-induced Wistar rat model of amnesia assessed as effect on total arm entries at 5 mg/kg, po pretreated for 7 days followed by scopolamine challenge by Y-maze test; type: functional, organism-based; conditions: time 7.0 day
Rattus norvegicus [25] = species on record: Rattus norvegicus; conditions: Wistar, dose 5.0 mg/kg, time 7.0 day
Cholinesterase [26] = target: Cholinesterase (Equus caballus, UniProt P81908); assay: Inhibition of equine serum BuChE by Ellman's method
Sequence of Cholinesterase (Equus caballus, UniProt P81908) (P81908 whole entry): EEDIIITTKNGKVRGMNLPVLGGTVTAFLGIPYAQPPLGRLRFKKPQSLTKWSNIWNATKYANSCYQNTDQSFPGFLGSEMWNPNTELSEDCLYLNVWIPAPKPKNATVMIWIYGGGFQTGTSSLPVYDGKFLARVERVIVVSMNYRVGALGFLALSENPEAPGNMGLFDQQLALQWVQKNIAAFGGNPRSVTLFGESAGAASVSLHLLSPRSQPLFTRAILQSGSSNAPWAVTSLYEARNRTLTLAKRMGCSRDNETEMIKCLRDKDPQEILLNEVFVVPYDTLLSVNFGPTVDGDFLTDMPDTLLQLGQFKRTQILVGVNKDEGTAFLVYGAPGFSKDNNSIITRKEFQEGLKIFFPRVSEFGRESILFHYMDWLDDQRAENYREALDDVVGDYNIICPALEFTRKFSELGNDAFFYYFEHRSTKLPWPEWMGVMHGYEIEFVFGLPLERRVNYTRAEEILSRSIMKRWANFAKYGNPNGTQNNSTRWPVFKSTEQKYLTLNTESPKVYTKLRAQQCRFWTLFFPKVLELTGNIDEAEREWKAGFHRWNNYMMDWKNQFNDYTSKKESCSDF

Sequence of Beta-secretase 1 (P56817 whole entry): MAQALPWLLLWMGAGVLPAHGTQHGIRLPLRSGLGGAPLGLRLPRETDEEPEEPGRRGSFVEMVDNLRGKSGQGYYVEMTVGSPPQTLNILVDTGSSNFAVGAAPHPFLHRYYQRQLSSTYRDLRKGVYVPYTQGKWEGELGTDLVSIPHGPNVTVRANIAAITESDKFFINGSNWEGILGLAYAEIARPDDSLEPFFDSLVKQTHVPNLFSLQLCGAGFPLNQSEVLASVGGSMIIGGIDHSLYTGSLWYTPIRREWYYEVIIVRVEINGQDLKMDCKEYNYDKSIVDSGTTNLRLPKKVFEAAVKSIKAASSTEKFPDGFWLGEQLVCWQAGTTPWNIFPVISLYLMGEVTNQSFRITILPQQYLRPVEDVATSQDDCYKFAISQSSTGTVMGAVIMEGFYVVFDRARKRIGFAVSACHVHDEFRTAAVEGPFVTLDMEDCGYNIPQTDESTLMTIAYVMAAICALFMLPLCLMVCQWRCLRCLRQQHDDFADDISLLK
T1 sequence (P06276 whole entry): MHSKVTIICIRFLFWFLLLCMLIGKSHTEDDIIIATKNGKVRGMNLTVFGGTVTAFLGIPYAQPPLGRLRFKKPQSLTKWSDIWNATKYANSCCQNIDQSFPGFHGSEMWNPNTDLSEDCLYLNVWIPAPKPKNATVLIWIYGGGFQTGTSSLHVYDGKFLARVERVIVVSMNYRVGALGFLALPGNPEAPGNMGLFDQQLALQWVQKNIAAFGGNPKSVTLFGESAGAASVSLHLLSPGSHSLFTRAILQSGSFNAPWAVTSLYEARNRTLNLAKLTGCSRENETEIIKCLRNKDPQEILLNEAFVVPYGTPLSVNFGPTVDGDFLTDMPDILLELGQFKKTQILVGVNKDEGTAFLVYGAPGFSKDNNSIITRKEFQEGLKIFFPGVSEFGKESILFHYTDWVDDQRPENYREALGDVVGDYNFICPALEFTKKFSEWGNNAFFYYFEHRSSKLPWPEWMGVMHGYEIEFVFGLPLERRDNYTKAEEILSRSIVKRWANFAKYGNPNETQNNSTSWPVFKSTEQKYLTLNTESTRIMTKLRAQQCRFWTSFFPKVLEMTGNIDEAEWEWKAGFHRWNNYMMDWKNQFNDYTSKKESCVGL
T2 sequence (P22303 whole entry): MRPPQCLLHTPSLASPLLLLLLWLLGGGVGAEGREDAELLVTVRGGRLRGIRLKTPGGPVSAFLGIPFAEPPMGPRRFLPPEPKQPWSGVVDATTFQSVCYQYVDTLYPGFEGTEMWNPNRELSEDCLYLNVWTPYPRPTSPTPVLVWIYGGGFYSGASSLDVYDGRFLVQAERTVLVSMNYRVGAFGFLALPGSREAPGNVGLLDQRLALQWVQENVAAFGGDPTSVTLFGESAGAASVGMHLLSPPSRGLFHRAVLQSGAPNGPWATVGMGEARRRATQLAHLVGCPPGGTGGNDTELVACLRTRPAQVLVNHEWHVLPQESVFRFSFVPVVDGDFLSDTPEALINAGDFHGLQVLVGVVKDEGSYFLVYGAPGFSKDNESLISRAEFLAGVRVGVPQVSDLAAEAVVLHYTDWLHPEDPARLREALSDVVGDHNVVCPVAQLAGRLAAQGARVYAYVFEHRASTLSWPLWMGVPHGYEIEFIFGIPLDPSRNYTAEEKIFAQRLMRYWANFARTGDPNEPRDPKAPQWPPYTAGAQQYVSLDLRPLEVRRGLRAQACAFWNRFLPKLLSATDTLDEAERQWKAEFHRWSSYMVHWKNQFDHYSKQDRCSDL

Row | SMILES | pIC50 (Cholinesterase [1]) | pIC50 (Acetylcholinesterase [2]) | pIC50 (Beta-secretase 1) | other results
1 | Oc1ccccc1/C=N\C1CCN(Cc2ccccc2)C1 (stereo not drawn) | 5.38 | < 5.00 |  | 
2 | Oc1ccccc1CNC1CCN(Cc2ccccc2)C1 (stereo not drawn) | 5.56 | 5.65 | 5.62 | 
3 | C(=N/C1CCN(Cc2ccccc2)C1)/c1ccccc1 (stereo not drawn) | 5.57 | 5.38 | 5.36 | 
4 | Oc1ccc(CNC2CCN(Cc3ccccc3)C2)c(O)c1 (stereo not drawn) | 5.57 | 5.82 | 6.32 | 
5 | Brc1ccc(CNC2CCN(Cc3ccccc3)C2)cc1 (stereo not drawn) | 6.12 | 6.88 | 6.19 | Papp at 18 h, 25 ug/ml [3]: 5.1 ×10⁻⁶ cm/s
6 | Oc1ccc(/C=N\C2CCN(Cc3ccccc3)C2)cc1 (stereo not drawn) | 5.63 | 5.25 | 5.34 | 
7 | c1ccc(CNC2CCN(Cc3ccccc3)C2)cc1 (stereo not drawn) | 5.80 | 5.95 | 5.62 | 
8 | FC(F)(F)c1ccc(CNC2CCN(Cc3ccccc3)C2)cc1 (stereo not drawn) | 6.01 | 6.89 | 6.01 | Papp at 18 h, 25 ug/ml [3]: 6.3 ×10⁻⁶ cm/s
9 | FC(F)(F)Oc1ccc(CNC2CCN(Cc3ccccc3)C2)cc1 (stereo not drawn) | 7.09 | 7.24 | 6.94 | Activity (Rattus norvegicus [4]): Active; Activity [5]: Non-Toxic; Activity (SH-SY5Y): 71.5%; Activity (Rattus norvegicus [6]): Active; inhibition (Acetylcholinesterase [7]): Active; Activity (Rattus norvegicus [8]): Active; Papp at 18 h, 25 ug/ml [3]: 6.9 ×10⁻⁶ cm/s; inhibition (Acetylcholinesterase [9]): Active; Activity (Rattus norvegicus [10]): inactive; pKi (Acetylcholinesterase [11]): 7.64; Cmax [12]: 272 ng/mL; Activity (Rattus norvegicus [13]): Dose-dependent effect; Activity (Rattus norvegicus [14]): Active; Tmax [15]: 3.3 h; Activity (Rattus norvegicus [16]): Active; inhibition (Rattus norvegicus [17]): Active; AUC(0-t) [18]: 5460 ng·h/mL; half-life [19]: 15.7 h; MRT [20]: 22.7 h; MTD [21]: 750 mg/kg
10 | Cc1ccc(/C=N\C2CCN(Cc3ccccc3)C2)cc1 (stereo not drawn) | 5.31 | < 5.00 |  | 
11 | COc1cccc(CNC2CCN(Cc3ccccc3)C2)c1OC (stereo not drawn) | 5.26 | 5.36 | 5.54 | 
12 | Cc1ccc(CNC2CCN(Cc3ccccc3)C2)cc1 (stereo not drawn) | 5.06 | 5.19 | 5.65 | 
13 | Brc1ccc(/C=N\C2CCN(Cc3ccccc3)C2)cc1 (stereo not drawn) | 5.93 | 5.89 | 5.76 | 
14 | Clc1ccc(CNC2CCN(Cc3ccccc3)C2)cc1 (stereo not drawn) | 6.58 | 6.75 | 6.79 | Papp at 18 h, 25 ug/ml [3]: 4.1 ×10⁻⁶ cm/s
15 | Fc1ccc(CNC2CCN(Cc3ccccc3)C2)c(F)c1 (stereo not drawn) | 6.90 | 7.16 | 7.01 | Activity (Rattus norvegicus [4]): Active; Activity [5]: Non-Toxic; Activity (SH-SY5Y): 66.8%; Activity (Rattus norvegicus [8]): Active; Papp at 18 h, 25 ug/ml [3]: 5.8 ×10⁻⁶ cm/s; Activity (Rattus norvegicus [13]): Dose-dependent effect; Activity (Rattus norvegicus [14]): Active; inhibition (Rattus norvegicus [17]): Active; Activity (Rattus norvegicus [22]): inactive; MTD [21]: 1750 mg/kg
16 | Fc1ccc(CNC2CCN(Cc3ccccc3)C2)cc1 (stereo not drawn) | 6.10 | 6.83 | 6.08 | Papp at 18 h, 25 ug/ml [3]: 4.2 ×10⁻⁶ cm/s
17 | c1ccc(CC2CCCN(CCNC3CCN(Cc4ccccc4)C3)C2)cc1 (stereo not drawn) |  |  |  | pIC50 (Cholinesterase [23]): 5.74

Row | SMILES | pIC50 (Cholinesterase [1]) | pIC50 (Acetylcholinesterase [2]) | pIC50 (Beta-secretase 1) | other results
18 | Oc1ccc(CNC2CCN(Cc3ccccc3)C2)cc1 (stereo not drawn) | 5.71 | 5.76 | 6.01 | 
19 | Clc1ccc(/C=N\C2CCN(Cc3ccccc3)C2)cc1 (stereo not drawn) | 5.93 | 5.91 | 5.90 | 
20 | Cc1cccc(CNC2CCN(Cc3ccccc3)C2)c1 (stereo not drawn) | 5.53 | < 5.00 |  | 
21 | Oc1ccc(/C=N\C2CCN(Cc3ccccc3)C2)c(O)c1 (stereo not drawn) | 5.48 | 5.43 | 5.35 | 
22 | COc1cccc(/C=N\C2CCN(Cc3ccccc3)C2)c1OC (stereo not drawn) | 5.37 | < 5.00 |  | 
23 | COc1cc(CNC2CCN(Cc3ccccc3)C2)cc(OC)c1OC (stereo not drawn) | 5.49 | 5.51 | 6.07 | 
24 | COc1cc2c(cc1OC)C(=O)C(CC1CCN(Cc3ccccc3)CC1)C2 (stereo not drawn) |  |  |  | Activity (Rattus norvegicus [24]): inactive; inhibition (Rattus norvegicus [25]): Active
25 | Cc1cccc(/C=N\C2CCN(Cc3ccccc3)C2)c1 (stereo not drawn) | 5.24 | < 5.00 |  | 
26 | FC(F)(F)c1ccc(/C=N\C2CCN(Cc3ccccc3)C2)cc1 (stereo not drawn) | 5.67 | 5.98 | 6.17 | 
27 | FC(F)(F)Oc1ccc(/C=N\C2CCN(Cc3ccccc3)C2)cc1 (stereo not drawn) | 6.16 | 6.06 | 5.68 | 
28 | O=[N+]([O-])c1ccc(/C=N\C2CCN(Cc3ccccc3)C2)cc1 (stereo not drawn) | 5.63 | 5.61 | 5.42 | 
29 | Cc1c(OCc2ccccc2)cccc1N1CCN(CCNC2CCN(Cc3ccccc3)C2)CC1 (stereo not drawn) |  |  |  | pIC50 (Cholinesterase [26]): 5.11
30 | O=[N+]([O-])c1ccc(CNC2CCN(Cc3ccccc3)C2)cc1 (stereo not drawn) | 5.87 | 6.13 | 5.74 | 
31 | COc1cc(/C=N\C2CCN(Cc3ccccc3)C2)cc(OC)c1OC (stereo not drawn) | 5.46 | 5.11 | < 5.00 | 
32 | Fc1ccc(/C=N\C2CCN(Cc3ccccc3)C2)cc1 (stereo not drawn) | 5.98 | 5.97 | 5.71 | 
33 | Fc1ccc(/C=N\C2CCN(Cc3ccccc3)C2)c(F)c1 (stereo not drawn) | 5.86 | 6.02 | 5.58 | 
